{"source": "patent US7951829B2", "about": "“Benzimidazole modulators of VR1” (Janssen Pharmaceutica NV, priority 2006, dated 2011)", "target": "T1, hVR1 (Homo sapiens, UniProt Q8NER1)", "T1 construct": "expressed in transfected cells; host or cells: HEK293", "T1 sequence (Q8NER1 whole entry)": "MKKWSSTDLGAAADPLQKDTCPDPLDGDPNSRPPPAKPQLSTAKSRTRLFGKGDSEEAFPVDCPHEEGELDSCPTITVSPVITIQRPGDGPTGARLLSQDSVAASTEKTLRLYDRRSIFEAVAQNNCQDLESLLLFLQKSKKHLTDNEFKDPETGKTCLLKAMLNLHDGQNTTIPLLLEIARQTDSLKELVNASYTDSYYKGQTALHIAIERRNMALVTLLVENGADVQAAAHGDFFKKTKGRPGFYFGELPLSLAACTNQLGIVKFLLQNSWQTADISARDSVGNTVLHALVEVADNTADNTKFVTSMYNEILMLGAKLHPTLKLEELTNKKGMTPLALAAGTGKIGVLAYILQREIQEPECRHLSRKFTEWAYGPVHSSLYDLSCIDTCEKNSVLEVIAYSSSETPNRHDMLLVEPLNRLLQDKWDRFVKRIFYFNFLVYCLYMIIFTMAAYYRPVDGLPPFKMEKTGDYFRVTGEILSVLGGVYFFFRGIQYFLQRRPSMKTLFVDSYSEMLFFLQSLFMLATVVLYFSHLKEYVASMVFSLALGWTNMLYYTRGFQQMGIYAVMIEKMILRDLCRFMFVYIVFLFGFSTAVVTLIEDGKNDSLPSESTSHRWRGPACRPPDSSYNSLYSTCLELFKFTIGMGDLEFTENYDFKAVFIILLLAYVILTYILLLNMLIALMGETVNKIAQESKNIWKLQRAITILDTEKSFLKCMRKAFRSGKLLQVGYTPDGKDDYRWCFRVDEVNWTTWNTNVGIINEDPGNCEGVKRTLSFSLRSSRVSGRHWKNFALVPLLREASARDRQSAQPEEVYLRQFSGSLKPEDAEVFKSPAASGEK", "assay": "Human VR1 (hVR1) Functional Assay (FLIPR intracellular calcium, capsaicin challenge)", "format": "cell-based", "conditions": "capsaicin 0.030 μM, HEK293 cells expressing hVR1; for inhibition at 1 µM: test concentration 1 μM", "data": [{"smiles": "CC(C)(O)c1ccccc1-c1ccc2[nH]c([C@H]3C[C@@H]3c3ccc(C(F)(F)F)cc3)nc2c1", "note": "[Cpd 503, 2-(2-{2-[(1S,2S)-2-(4-trifluoromethyl-phenyl)-cyclopropyl]-1H-benzimidazol-5-yl}-phenyl)-propan-2-ol]", "values": [{"measurement": "IC50", "result": 0.01, "unit": "µM"}, {"measurement": "inhibition at 1 µM", "result": 93, "unit": "%"}]}, {"smiles": "O=S(=O)(c1ccc(/C=C/c2nc3cc(-c4ccccc4CO)ccc3[nH]2)cc1)C(F)(F)F", "note": "[Cpd 42, (E)-(2-{2-[2-(4-trifluoromethanesulfonyl-phenyl)-vinyl]-1H-benzimidazol-5-yl}-phenyl)-methanol]", "values": [{"measurement": "IC50", "result": 0.022, "unit": "µM"}, {"measurement": "inhibition at 1 µM", "result": 100, "unit": "%"}]}, {"smiles": "CS(=O)(=O)Nc1ccccc1-c1ccc2[nH]c(/C=C/c3ccc(OCC(F)(F)C(F)(F)F)cc3)nc2c1", "note": "[Cpd 101, (E)-N-[2-(2-{2-[4-(2,2,3,3,3-pentafluoro-propoxy)-phenyl]-vinyl}-1H-benzimidazol-5-yl)-phenyl]-methanesulfonamide]", "values": [{"measurement": "IC50", "result": "> 0.5", "unit": "µM"}]}, {"smiles": "CNCc1ccccc1-c1ccc2[nH]c(/C=C/c3ccc(C(F)(F)F)cc3)nc2c1", "note": "[Cpd 485, (E)-methyl-(2-{2-[2-(4-trifluoromethyl-phenyl)-vinyl]-1H-benzimidazol-5-yl}-benzyl)-amine]", "values": [{"measurement": "IC50", "result": "> 0.5", "unit": "µM"}]}, {"smiles": "CNS(=O)(=O)c1ccccc1-c1ccc2[nH]c(CCc3cccc(C(F)(F)F)c3)nc2c1", "note": "[Cpd 350, N-methyl-2-{2-[2-(3-trifluoromethyl-phenyl)-ethyl]-1H-benzimidazol-5-yl}-benzenesulfonamide]", "values": [{"measurement": "IC50", "result": 0.033, "unit": "µM"}, {"measurement": "inhibition at 1 µM", "result": 100, "unit": "%"}]}, {"smiles": "CC(C)(C)c1ccc(/C=C/c2nc3cc(-c4cccc(C(N)=O)c4)ccc3[nH]2)cc1", "note": "[Cpd 6, (E)-3-{2-[2-(4-tert-butyl-phenyl)-vinyl]-1H-benzimidazol-5-yl}-benzamide]", "values": [{"measurement": "inhibition at 1 µM", "result": 12, "unit": "%"}]}, {"smiles": "O=S(=O)(c1ccc(/C=C/c2nc3cc(-c4ccccc4O)ccc3[nH]2)cc1)C(F)(F)F", "note": "[Cpd 41, (E)-2-{2-[2-(4-trifluoromethanesulfonyl-phenyl)-vinyl]-1H-benzimidazol-5-yl}-phenol]", "values": [{"measurement": "IC50", "result": 0.28, "unit": "µM"}, {"measurement": "inhibition at 1 µM", "result": 90, "unit": "%"}]}, {"smiles": "CS(=O)(=O)Nc1ccccc1-c1ccc2[nH]c(/C=C/c3ccc(OC(F)F)cc3)nc2c1", "note": "[Cpd 410, (E)-N-(2-{2-[2-(4-difluoromethoxy-phenyl)-vinyl]-1H-benzimidazol-5-yl}-phenyl)-methanesulfonamide]", "values": [{"measurement": "IC50", "result": 0.156, "unit": "µM"}, {"measurement": "inhibition at 1 µM", "result": 91, "unit": "%"}]}, {"smiles": "O=S(=O)(c1ccc(/C=C/c2nc3cc(-c4ccccc4C(F)(F)F)ccc3[nH]2)cc1)C(F)(F)F", "note": "[Cpd 481, (E)-2-[2-(4-trifluoromethanesulfonyl-phenyl)-vinyl]-5-(2-trifluoromethyl-phenyl)-1H-benzimidazole]", "values": [{"measurement": "inhibition at 1 µM", "result": 42, "unit": "%"}]}, {"smiles": "CNS(=O)(=O)c1ccccc1-c1ccc2[nH]c(/C=C/c3cccc(Br)c3)nc2c1", "note": "[Cpd 338, (E)-2-{2-[2-(3-bromo-phenyl)-vinyl]-1H-benzimidazol-5-yl}-N-methyl-benzenesulfonamide]", "values": [{"measurement": "IC50", "result": 0.104, "unit": "µM"}, {"measurement": "inhibition at 1 µM", "result": 96, "unit": "%"}]}, {"smiles": "NC(=O)c1ccccc1-c1ccc2[nH]c(/C=C/c3ccc(S(=O)(=O)C(F)(F)F)cc3)nc2c1", "note": "[Cpd 44, (E)-2-{2-[2-(4-trifluoromethanesulfonyl-phenyl)-vinyl]-1H-benzimidazol-5-yl}-benzamide]", "values": [{"measurement": "IC50", "result": 0.3, "unit": "µM"}, {"measurement": "inhibition at 1 µM", "result": 95, "unit": "%"}]}, {"smiles": "NC(=O)c1ccccc1-c1ccc2[nH]c(/C=C/c3ccc(C(F)(F)F)cc3)nc2c1", "note": "[Cpd 13, (E)-2-{2-[2-(4-trifluoromethyl-phenyl)-vinyl]-1H-benzimidazol-5-yl}-benzamide]", "values": [{"measurement": "IC50", "result": 0.31, "unit": "µM"}, {"measurement": "inhibition at 1 µM", "result": 82, "unit": "%"}]}, {"smiles": "CC(O)c1ccccc1-c1ccc2[nH]c(/C=C/c3ccc(C(F)(F)F)cc3)nc2c1", "note": "(stereo not drawn) [Cpd 16, (E)-1-(2-{2-[2-(4-trifluoromethyl-phenyl)-vinyl]-1H-benzimidazol-5-yl}-phenyl)-ethanol]", "values": [{"measurement": "IC50", "result": 0.045, "unit": "µM"}, {"measurement": "inhibition at 1 µM", "result": 100, "unit": "%"}]}, {"smiles": "CC(=O)Nc1ccccc1-c1ccc2[nH]c(CCc3ccc(C(F)(F)F)cc3)nc2c1", "note": "[Cpd 457, N-(2-{2-[2-(4-trifluoromethyl-phenyl)-ethyl]-1H-benzimidazol-5-yl}-phenyl)-acetamide]", "values": [{"measurement": "inhibition at 1 µM", "result": 22, "unit": "%"}]}, {"smiles": "CS(=O)(=O)Nc1ccccc1-c1ccc2[nH]c(/C=C/c3ccc(OCC(F)(F)F)cc3)nc2c1", "note": "[Cpd 95, (E)-N-[2-(2-{2-[4-(2,2,2-trifluoro-ethoxy)-phenyl]-vinyl}-1H-benzimidazol-5-yl)-phenyl]-methanesulfonamide]", "values": [{"measurement": "IC50", "result": 0.301, "unit": "µM"}, {"measurement": "inhibition at 1 µM", "result": 81, "unit": "%"}]}, {"smiles": "CC(C)(C)c1ccc(/C=C/c2nc3cc(-c4cccc(O)c4)c(C(F)(F)F)cc3[nH]2)cc1", "note": "[Cpd 49, (E)-3-{2-[2-(4-tert-butyl-phenyl)-vinyl]-6-trifluoromethyl-1H-benzimidazol-5-yl}-phenol]", "values": [{"measurement": "inhibition at 1 µM", "result": 16, "unit": "%"}]}, {"smiles": "Oc1ccccc1-c1cc2nc(/C=C/c3ccc(C(F)(F)F)cc3)[nH]c2cc1Cl", "note": "[Cpd 68, (E)-2-{6-chloro-2-[2-(4-trifluoromethyl-phenyl)-vinyl]-1H-benzimidazol-5-yl}-phenol]", "values": [{"measurement": "IC50", "result": 0.329, "unit": "µM"}]}, {"smiles": "NS(=O)(=O)c1ccccc1-c1ccc2[nH]c(CCc3cc(F)ccc3F)nc2c1", "note": "[Cpd 395, 2-{2-[2-(2,5-difluoro-phenyl)-ethyl]-1H-benzimidazol-5-yl}-benzenesulfonamide]", "values": [{"measurement": "IC50", "result": 0.015, "unit": "µM"}, {"measurement": "inhibition at 1 µM", "result": 99, "unit": "%"}]}, {"smiles": "NS(=O)(=O)c1ccccc1-c1ccc2[nH]c(/C=C/c3c(F)cccc3F)nc2c1", "note": "[Cpd 372, (E)-2-{2-[2-(2,6-difluoro-phenyl)-vinyl]-1H-benzimidazol-5-yl}-benzenesulfonamide]", "values": [{"measurement": "IC50", "result": 0.071, "unit": "µM"}, {"measurement": "inhibition at 1 µM", "result": 97, "unit": "%"}]}, {"smiles": "CS(=O)(=O)c1ccccc1-c1ccc2[nH]c(C3CC3c3ccc(C(F)(F)F)cc3)nc2c1", "note": "(stereo not drawn) [Cpd 500, 5-(2-methanesulfonyl-phenyl)-2-[2-(4-trifluoromethyl-phenyl)-cyclopropyl]-1H-benzimidazole]", "values": [{"measurement": "IC50", "result": 0.019, "unit": "µM"}, {"measurement": "inhibition at 1 µM", "result": 97, "unit": "%"}]}, {"smiles": "COc1ccc(C2CC2c2nc3cc(-c4ccccc4C(C)(C)O)ccc3[nH]2)cc1", "note": "(stereo not drawn) [Cpd 494, 2-(2-{2-[2-(4-methoxy-phenyl)-cyclopropyl]-1H-benzimidazol-5-yl}-phenyl)-propan-2-ol]", "values": [{"measurement": "IC50", "result": 0.052, "unit": "µM"}, {"measurement": "inhibition at 1 µM", "result": 93, "unit": "%"}]}, {"smiles": "CS(=O)(=O)Nc1ccccc1-c1ccc2[nH]c(/C=C/c3ccc(Cl)c(Cl)c3)nc2c1", "note": "[Cpd 416, (E)-N-(2-{2-[2-(3,4-dichloro-phenyl)-vinyl]-1H-benzimidazol-5-yl}-phenyl)-methanesulfonamide]", "values": [{"measurement": "IC50", "result": 0.12, "unit": "µM"}, {"measurement": "inhibition at 1 µM", "result": 96, "unit": "%"}]}, {"smiles": "CC(C)(C)C(=O)Nc1ccccc1-c1ccc2[nH]c(/C=C/c3ccc(C(F)(F)F)cc3)nc2c1", "note": "[Cpd 460, (E)-2,2-dimethyl-N-(2-{2-[2-(4-trifluoromethyl-phenyl)-vinyl]-1H-benzimidazol-5-yl}-phenyl)-propionamide]", "values": [{"measurement": "inhibition at 1 µM", "result": 21, "unit": "%"}]}, {"smiles": "OCc1ccccc1-c1cc2nc(/C=C/c3ccc(C(F)(F)F)cc3)[nH]c2cc1Cl", "note": "[Cpd 66, (E)-(2-{6-chloro-2-[2-(4-trifluoromethyl-phenyl)-vinyl]-1H-benzimidazol-5-yl}-phenyl)-methanol]", "values": [{"measurement": "IC50", "result": 0.048, "unit": "µM"}, {"measurement": "inhibition at 1 µM", "result": 98, "unit": "%"}]}, {"smiles": "NS(=O)(=O)c1ccccc1-c1ccc2[nH]c(CCc3cccc(F)c3F)nc2c1", "note": "[Cpd 394, 2-{2-[2-(2,3-difluoro-phenyl)-ethyl]-1H-benzimidazol-5-yl}-benzenesulfonamide]", "values": [{"measurement": "IC50", "result": 0.006, "unit": "µM"}, {"measurement": "inhibition at 1 µM", "result": 98, "unit": "%"}]}, {"smiles": "CN(C)S(=O)(=O)c1ccccc1-c1ccc2[nH]c(/C=C/c3ccc(C(F)(F)F)cc3)nc2c1", "note": "[Cpd 398, (E)-N,N-dimethyl-2-{2-[2-(4-trifluoromethyl-phenyl)-vinyl]-1H-benzimidazol-5-yl}-benzenesulfonamide]", "values": [{"measurement": "IC50", "result": 0.003, "unit": "µM"}, {"measurement": "inhibition at 1 µM", "result": 97, "unit": "%"}]}, {"smiles": "CNS(=O)(=O)c1ccccc1-c1ccc2[nH]c(/C=C/c3ccc(Cl)cc3S(C)(=O)=O)nc2c1", "note": "[Cpd 340, (E)-2-{2-[2-(4-chloro-2-methanesulfonyl-phenyl)-vinyl]-1H-benzimidazol-5-yl}-N-methyl-benzenesulfonamide]", "values": [{"measurement": "IC50", "result": 0.062, "unit": "µM"}, {"measurement": "inhibition at 1 µM", "result": 98, "unit": "%"}]}, {"smiles": "CC(C)(C)OC(=O)Nc1ccccc1-c1ccc2[nH]c(C3CC3c3ccc(C(F)(F)F)cc3)nc2c1", "note": "(stereo not drawn) [Cpd 473, (2-{2-[2-(4-trifluoromethyl-phenyl)-cyclopropyl]-1H-benzimidazol-5-yl}-phenyl)-carbamic acid tert-butyl ester]", "values": [{"measurement": "IC50", "result": "> 0.5", "unit": "µM"}]}, {"smiles": "NS(=O)(=O)c1ccccc1-c1ccc2[nH]c(CCc3ccc(C(F)(F)F)cc3)nc2c1", "note": "[Cpd 130, 2-{2-[2-(4-trifluoromethyl-phenyl)-ethyl]-1H-benzimidazol-5-yl}-benzenesulfonamide]", "values": [{"measurement": "IC50", "result": 0.006, "unit": "µM"}, {"measurement": "inhibition at 1 µM", "result": 100, "unit": "%"}]}, {"smiles": "NS(=O)(=O)c1ccccc1-c1ccc2[nH]c(/C=C/c3ccc(C(F)F)cc3)nc2c1", "note": "[Cpd 435, (E)-2-{2-[2-(4-difluoromethyl-phenyl)-vinyl]-1H-benzimidazol-5-yl}-benzenesulfonamide]", "values": [{"measurement": "IC50", "result": 0.02, "unit": "µM"}, {"measurement": "inhibition at 1 µM", "result": 97, "unit": "%"}]}, {"smiles": "NS(=O)(=O)c1ccccc1-c1ccc2[nH]c(CCc3ccc(F)cc3)nc2c1", "note": "[Cpd 420, 2-{2-[2-(4-fluoro-phenyl)-ethyl]-1H-benzimidazol-5-yl}-benzenesulfonamide]", "values": [{"measurement": "IC50", "result": 0.015, "unit": "µM"}, {"measurement": "inhibition at 1 µM", "result": 93, "unit": "%"}]}, {"smiles": "Oc1ccccc1-c1ccc2[nH]c(C3CC3c3ccc(C(F)(F)F)cc3)nc2c1", "note": "(stereo not drawn) [Cpd 472, 2-{2-[2-(4-trifluoromethyl-phenyl)-cyclopropyl]-1H-benzimidazol-5-yl}-phenol]", "values": [{"measurement": "IC50", "result": "> 0.5", "unit": "µM"}]}, {"smiles": "CN(C)S(=O)(=O)c1ccccc1-c1ccc2[nH]c(CCc3ccc(C(F)(F)F)cc3)nc2c1", "note": "[Cpd 399, N,N-dimethyl-2-{2-[2-(4-trifluoromethyl-phenyl)-ethyl]-1H-benzimidazol-5-yl}-benzenesulfonamide]", "values": [{"measurement": "IC50", "result": 0.003, "unit": "µM"}, {"measurement": "inhibition at 1 µM", "result": 97, "unit": "%"}]}, {"smiles": "CNS(=O)(=O)c1ccccc1-c1ccc2[nH]c(/C=C/c3cccc(OC(F)(F)F)c3)nc2c1", "note": "[Cpd 344, (E)-N-methyl-2-{2-[2-(3-trifluoromethoxy-phenyl)-vinyl]-1H-benzimidazol-5-yl}-benzenesulfonamide]", "values": [{"measurement": "IC50", "result": 0.024, "unit": "µM"}, {"measurement": "inhibition at 1 µM", "result": 101, "unit": "%"}]}, {"smiles": "CNS(=O)(=O)c1ccccc1-c1ccc2[nH]c(/C=C/c3ccc(F)c(C(F)(F)F)c3)nc2c1", "note": "[Cpd 331, (E)-2-{2-[2-(4-fluoro-3-trifluoromethyl-phenyl)-vinyl]-1H-benzimidazol-5-yl}-N-methyl-benzenesulfonamide]", "values": [{"measurement": "IC50", "result": 0.043, "unit": "µM"}, {"measurement": "inhibition at 1 µM", "result": 97, "unit": "%"}]}]}
